Results taken from patent publication US20230017786A1, “DEXTR[…] A DISEASE-MODIFYING TREATMENT FOR NEUROPSYCHIATRIC DISORDERS AND DISEASES” (priority 2020, published 2023).

Key:
[1] = target: T1, human NMDA receptor GluN1-GluN2C (Homo sapiens, UniProt Q05586+Q14957); assay: FLIPR calcium assay, quinolinic acid, gentamicin, dextromethadone (Example 5 Part II), GluN1-GluN2C-CHO; format: cell-based; settings: for calcium response (mean±SEM): GluN2C, n=42
T1 construct: expressed in transfected cells; host or cells: CHO
Procedure: (§1) Quinolinic acid or gentamicin CRCs were also produced, in presence of 10 μM glycine.
(§2) Test items were evaluated in FLIPR for their ability to modulate, alone or in combination, calcium entry in presence of […], using four CHO cell lines expressing diheteromeric human NMDA receptor (NMDAR): GluN-/GluN2A-CHO, GluN1-GluN2B-CHO, GluN1-GluN2C-CHO, GluN1-GluN2D-CHO.
(§3) The first aim of the study was to evaluate quinolinic acid or gentamicin CRC effect in the presence of 10 μM glycine.
(§4) FLIPR determination of intracellular calcium level was used as a read-out for NMDAR activation.
(§5) 400× compound plate was stored at −20° C. till FLIPR experimental day.
(§6) A 4× compound plate was generated from 400× compound plate by addition of up to 30 μl/well of compound buffer on FLIPR experimental day.
(§7) A FLIPR system was used to monitor intracellular calcium level in NMDAR cell lines, pre-loaded for 1 hour with Fluo-4, and then washed with assay buffer.
(§8) Y=Bottom+(Top−Bottom)/(1+10^((LogEC50−X)*HillSlope))
(§9) Test item CRC data were plotted by Prism 8 GraphPad software, in the different experimental conditions. And, column analysis, performed by Prism 8 GraphPad software, was one way ANOVA followed by Tukey's multiple comparisons test, with a single pooled variance.

[2] = target: T2, human NMDA receptor GluN1-GluN2A (Homo sapiens, UniProt Q05586+Q12879); assay: FLIPR calcium assay, quinolinic acid, gentamicin, dextromethadone (Example 5 Part II), GluN1-GluN2A-CHO; format: cell-based; design: calcium response (mean±SEM): unit not given here; settings: for calcium response (mean±SEM): GluN2A, n=42
T2 construct: expressed in transfected cells; host or cells: CHO
Procedure: as §1, §2, §3, §4, §5, §6, §7, §8, §9

[3] = target: T3, human NMDA receptor GluN1-GluN2D (Homo sapiens, UniProt O15399+Q05586); assay: FLIPR calcium assay, quinolinic acid, gentamicin, dextromethadone (Example 5 Part II), GluN1-GluN2D-CHO; format: cell-based; settings: for calcium response (mean±SEM): GluN2D, n=42
T3 construct: expressed in transfected cells; host or cells: CHO
Procedure: as §1, §2, §3, §4, §5, §6, §7, §8, §9

[4] = target: rat GluN1-GluN2B receptor (Rattus norvegicus, UniProt P35439+Q00960); settings: Banke and Traynelis, 2003; read-out: potency; cited from earlier work
[5] = target: T4, human NMDA receptor GluN1-GluN2B (Homo sapiens, UniProt Q05586+Q13224); assay: FLIPR calcium assay, quinolinic acid, gentamicin, dextromethadone (Example 5 Part II), GluN1-GluN2B-CHO; format: cell-based; settings: for calcium response (mean±SEM): GluN2B, n=42; for Response at max conc (%): quinolinic acid CRC, max 1,000 μM
T4 construct: expressed in transfected cells; host or cells: CHO
Procedure: as §1, §2, §3, §4, §5, §6, §7, §8, §9

[6] = 0.04 μM L-Glu + 100 μM QA, 10 μM glycine
[7] = 0.04 μM L-Glu + 1000 μM QA, 10 μM glycine
[8] = 0.2 μM L-Glu + 100 μM QA, 10 μM glycine
[9] = 0.2 μM L-Glu + 1000 μM QA, 10 μM glycine
[10] = 100 μM QA, 10 μM glycine, 100% = 10 μM L-glutamate plus 10 μM glycine
[11] = 1000 μM QA, 10 μM glycine, 100% = 10 μM L-glutamate plus 10 μM glycine
[12] = CRC in presence of 10 μM glycine
[13] = quinolinic acid CRC, max 1,000 μM, 10 μM glycine
[14] = 1000 μM QA, 10 μM glycine, 100% = 10 μM L-glutamate plus 10 μM glycine, listed as QA

T4 sequence (Q13224 27-1484, other chains not shown): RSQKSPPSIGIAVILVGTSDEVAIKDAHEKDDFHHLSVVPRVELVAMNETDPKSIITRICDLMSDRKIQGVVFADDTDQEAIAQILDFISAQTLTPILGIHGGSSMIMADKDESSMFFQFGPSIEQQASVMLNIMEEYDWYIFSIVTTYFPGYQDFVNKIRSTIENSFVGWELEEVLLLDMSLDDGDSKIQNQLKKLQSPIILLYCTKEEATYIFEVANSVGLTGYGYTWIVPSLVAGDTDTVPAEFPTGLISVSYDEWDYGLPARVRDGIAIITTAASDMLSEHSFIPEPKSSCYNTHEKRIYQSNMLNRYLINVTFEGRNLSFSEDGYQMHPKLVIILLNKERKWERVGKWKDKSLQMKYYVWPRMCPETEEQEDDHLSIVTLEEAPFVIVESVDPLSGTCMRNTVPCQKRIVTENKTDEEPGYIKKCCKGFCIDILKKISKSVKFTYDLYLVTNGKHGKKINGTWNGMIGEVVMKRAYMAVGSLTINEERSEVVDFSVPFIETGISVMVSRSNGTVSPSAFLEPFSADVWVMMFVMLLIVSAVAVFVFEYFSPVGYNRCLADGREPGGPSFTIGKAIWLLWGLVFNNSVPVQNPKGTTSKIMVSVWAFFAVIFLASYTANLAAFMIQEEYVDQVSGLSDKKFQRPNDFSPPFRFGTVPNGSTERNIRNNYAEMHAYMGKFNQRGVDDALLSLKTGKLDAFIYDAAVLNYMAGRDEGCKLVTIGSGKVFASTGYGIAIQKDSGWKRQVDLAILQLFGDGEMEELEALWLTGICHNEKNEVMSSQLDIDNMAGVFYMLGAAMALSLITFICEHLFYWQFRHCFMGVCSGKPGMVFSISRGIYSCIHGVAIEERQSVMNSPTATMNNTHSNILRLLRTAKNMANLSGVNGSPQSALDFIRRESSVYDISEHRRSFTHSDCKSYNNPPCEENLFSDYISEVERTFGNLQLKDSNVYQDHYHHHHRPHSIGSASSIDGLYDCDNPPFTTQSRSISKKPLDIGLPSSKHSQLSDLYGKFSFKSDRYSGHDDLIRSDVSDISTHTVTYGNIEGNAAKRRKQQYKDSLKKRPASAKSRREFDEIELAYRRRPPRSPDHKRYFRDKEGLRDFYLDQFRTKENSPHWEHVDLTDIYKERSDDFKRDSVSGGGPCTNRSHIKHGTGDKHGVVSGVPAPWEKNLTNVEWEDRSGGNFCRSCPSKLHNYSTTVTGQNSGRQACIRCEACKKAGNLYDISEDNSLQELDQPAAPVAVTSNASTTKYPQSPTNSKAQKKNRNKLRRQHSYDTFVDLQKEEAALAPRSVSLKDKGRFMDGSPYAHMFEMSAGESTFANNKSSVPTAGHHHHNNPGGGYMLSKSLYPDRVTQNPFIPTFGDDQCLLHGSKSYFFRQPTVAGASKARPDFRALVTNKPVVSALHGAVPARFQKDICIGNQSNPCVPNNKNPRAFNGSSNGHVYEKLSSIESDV
T1 sequence (Q14957 20-1233, other chains not shown): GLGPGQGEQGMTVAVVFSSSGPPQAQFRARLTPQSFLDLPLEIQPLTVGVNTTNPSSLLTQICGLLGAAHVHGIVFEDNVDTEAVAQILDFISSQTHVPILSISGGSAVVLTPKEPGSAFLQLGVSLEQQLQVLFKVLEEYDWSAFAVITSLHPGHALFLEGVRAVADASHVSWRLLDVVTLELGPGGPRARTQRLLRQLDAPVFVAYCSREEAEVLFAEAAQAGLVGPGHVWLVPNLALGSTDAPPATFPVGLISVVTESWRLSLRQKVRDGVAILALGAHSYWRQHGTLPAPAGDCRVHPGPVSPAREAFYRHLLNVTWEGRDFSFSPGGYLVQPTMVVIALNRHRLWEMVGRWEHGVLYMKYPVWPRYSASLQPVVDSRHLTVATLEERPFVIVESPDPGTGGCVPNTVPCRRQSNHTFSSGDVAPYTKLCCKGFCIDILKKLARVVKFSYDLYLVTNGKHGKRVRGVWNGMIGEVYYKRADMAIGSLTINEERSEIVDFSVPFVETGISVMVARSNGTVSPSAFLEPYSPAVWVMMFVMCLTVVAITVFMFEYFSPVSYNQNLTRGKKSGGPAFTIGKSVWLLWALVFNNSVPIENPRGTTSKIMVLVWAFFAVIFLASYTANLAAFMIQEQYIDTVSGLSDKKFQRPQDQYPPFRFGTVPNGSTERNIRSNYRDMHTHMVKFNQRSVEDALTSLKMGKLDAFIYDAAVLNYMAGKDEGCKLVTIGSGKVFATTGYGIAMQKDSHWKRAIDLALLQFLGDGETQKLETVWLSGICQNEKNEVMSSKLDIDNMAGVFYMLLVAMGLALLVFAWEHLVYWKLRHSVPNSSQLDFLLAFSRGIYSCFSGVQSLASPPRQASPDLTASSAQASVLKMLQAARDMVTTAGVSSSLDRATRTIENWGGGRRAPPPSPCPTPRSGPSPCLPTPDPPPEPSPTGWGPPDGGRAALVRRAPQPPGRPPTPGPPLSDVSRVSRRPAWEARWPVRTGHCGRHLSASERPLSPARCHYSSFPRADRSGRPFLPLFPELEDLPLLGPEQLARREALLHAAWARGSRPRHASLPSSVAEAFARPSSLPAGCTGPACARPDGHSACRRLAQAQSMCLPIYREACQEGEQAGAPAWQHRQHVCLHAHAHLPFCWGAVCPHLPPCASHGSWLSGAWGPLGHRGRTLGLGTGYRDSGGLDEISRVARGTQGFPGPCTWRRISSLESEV
T3 sequence (O15399 28-1336, other chains not shown): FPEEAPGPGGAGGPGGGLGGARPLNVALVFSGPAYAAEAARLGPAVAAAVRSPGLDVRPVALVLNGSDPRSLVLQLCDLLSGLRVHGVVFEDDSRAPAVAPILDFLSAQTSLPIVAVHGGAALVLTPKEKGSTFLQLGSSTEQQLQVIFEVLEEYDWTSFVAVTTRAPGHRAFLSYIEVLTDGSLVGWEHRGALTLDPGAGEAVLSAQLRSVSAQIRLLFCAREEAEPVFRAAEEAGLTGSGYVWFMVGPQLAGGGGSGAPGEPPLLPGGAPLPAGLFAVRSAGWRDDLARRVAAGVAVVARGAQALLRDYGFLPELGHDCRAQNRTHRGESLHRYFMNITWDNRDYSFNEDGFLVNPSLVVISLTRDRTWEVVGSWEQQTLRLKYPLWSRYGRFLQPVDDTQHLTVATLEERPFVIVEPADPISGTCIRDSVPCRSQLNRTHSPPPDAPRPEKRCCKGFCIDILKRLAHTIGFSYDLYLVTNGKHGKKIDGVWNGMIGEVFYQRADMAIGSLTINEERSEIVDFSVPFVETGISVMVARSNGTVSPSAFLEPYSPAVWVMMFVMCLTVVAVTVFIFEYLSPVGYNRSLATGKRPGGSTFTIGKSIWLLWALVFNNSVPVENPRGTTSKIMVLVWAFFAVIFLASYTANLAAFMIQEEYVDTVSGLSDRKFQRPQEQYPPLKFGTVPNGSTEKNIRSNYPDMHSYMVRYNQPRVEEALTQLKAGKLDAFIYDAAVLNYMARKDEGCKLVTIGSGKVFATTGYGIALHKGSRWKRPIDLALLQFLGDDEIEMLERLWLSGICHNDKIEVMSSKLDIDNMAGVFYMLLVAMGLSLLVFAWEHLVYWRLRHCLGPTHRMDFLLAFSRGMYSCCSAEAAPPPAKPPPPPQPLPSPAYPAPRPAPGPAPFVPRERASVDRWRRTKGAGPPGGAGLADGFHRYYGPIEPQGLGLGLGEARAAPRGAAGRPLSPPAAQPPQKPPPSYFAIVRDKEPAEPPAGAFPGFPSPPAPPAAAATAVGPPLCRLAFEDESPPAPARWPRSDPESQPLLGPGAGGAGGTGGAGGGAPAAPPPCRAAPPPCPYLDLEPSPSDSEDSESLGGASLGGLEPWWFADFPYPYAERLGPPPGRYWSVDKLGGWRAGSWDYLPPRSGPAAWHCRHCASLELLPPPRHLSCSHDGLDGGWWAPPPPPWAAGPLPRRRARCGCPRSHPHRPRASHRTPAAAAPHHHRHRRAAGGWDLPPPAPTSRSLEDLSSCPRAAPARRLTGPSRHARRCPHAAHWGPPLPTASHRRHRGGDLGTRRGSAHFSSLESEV

Question: For `O=C(O)c1cccnc1C(=O)O` [Quinolinic acid], which “calcium response (mean±SEM)” value [1, 6] is on record?
Answer: Its value is −2.0 ± 1.1.

Question: And the “calcium response (mean±SEM)” value [1, 7]?
Answer: The value was −4.1 ± 0.9^.

Question: What about the “calcium response (mean±SEM)” value [1, 8] of the same molecule?
Answer: The value was 27 ± 1.1.

Question: What about the “calcium response (mean±SEM)” value [1, 9] of the same molecule?
Answer: The value was 6.6 ± 0.8.

Question: What about the EC50 ([1]; 10 μM glycine, read-out: EC50) of the same molecule?
Answer: The EC50 was over 1000 µM.

Question: And the “% effect on calcium entry, 100 QA” value [1, 10]?
Answer: Its value is −2.8 ± 0.6%.

Question: And the “calcium response (mean±SEM)” value ([1]; 1000 μM QA, 10 μM glycine)?
Answer: Its value is −5.5 ± 0.4^.

Question: And the “% effect on calcium entry, 1000 QA” value [1, 11]?
Answer: The value was −5.5 ± 0.4^ %.

Question: What about the “Minimal response (%)” value [1, 12] of the same molecule?
Answer: The value was −4.0%.

Question: And the “intracellular calcium increase elicited by 0.2 μM L-glutamate” value ([1]; plus 1000 μM quinolinic acid, 10 μM glycine)?
Answer: The value was 6.6±0.8%.

Question: What about the “Response at max conc (%)” value [1, 13] of the same molecule?
Answer: Its value is −4.0%.

Question: And the “calcium response (mean±SEM)” value [2, 6]?
Answer: The value was 7.5 ± 0.4.

Question: And the “calcium response (mean±SEM)” value [2, 7]?
Answer: The value was 41 ± 1.0.

Question: What about the “calcium response (mean±SEM)” value [2, 8] of the same molecule?
Answer: Its value is 26 ± 0.6.

Question: What about the “calcium response (mean±SEM)” value [2, 9] of the same molecule?
Answer: The value was 46 ± 0.9.

Question: What about the EC50 ([2]; 10 μM glycine, fit with maximal response constrained at 75%, read-out: EC50) of the same molecule?
Answer: The EC50 was 850 µM.

Question: And the “% effect on calcium entry, 100 QA” value [2, 10]?
Answer: Its value is 2.5 ± 0.3%.

Question: And the “calcium response (mean±SEM)” value ([2]; 1000 μM QA, 10 μM glycine)?
Answer: The value was 41 ± 1.2.

Question: What about the “% effect on calcium entry, 1000 QA” value [2, 11] of the same molecule?
Answer: The value was 41±1.1%.

Question: What about the “% effect on calcium entry, 1000 QA” value [2, 14] of the same molecule?
Answer: The value was 41 ± 1.2%.

Question: What about the “% effect on calcium entry, 1000 QA” value ([2]; 1000 μM QA, 10 μM glycine, 100% = 10 μM L-glutamate plus 10 μM glycine, listed as quinolinic acid) of the same molecule?
Answer: The value was 41±1.2%.

Question: What about the “Minimal response (%)” value [2, 12] of the same molecule?
Answer: The value was −1.9%.

Question: And the “Response at max conc (%)” value [2, 13]?
Answer: Its value is 40%.

Question: And the “calcium response (mean±SEM)” value [3, 6]?
Answer: Its value is 26 ± 1.2.

Question: And the “calcium response (mean±SEM)” value [3, 7]?
Answer: The value was 53 ± 2.3.

Question: What about the “calcium response (mean±SEM)” value [3, 8] of the same molecule?
Answer: Its value is 93 ± 1.0.

Question: And the “calcium response (mean±SEM)” value [3, 9]?
Answer: The value was 58 ± 1.6.

Question: What about the EC50 ([3]; 10 μM glycine, read-out: EC50) of the same molecule?
Answer: The EC50 was 520 µM.

Question: And the “% effect on calcium entry, 100 QA” value [3, 10]?
Answer: The value was −0.1 ± 0.4%.

Question: And the “calcium response (mean±SEM)” value ([3]; 1000 μM QA, 10 μM glycine)?
Answer: The value was 55 ± 1.1.

Question: And the “% effect on calcium entry, 1000 QA” value [3, 11]?
Answer: The value was 55±1.1%.

Question: What about the “% effect on calcium entry, 1000 QA” value [3, 14] of the same molecule?
Answer: The value was 55 ± 1.1%.

Question: And the “Minimal response (%)” value [3, 12]?
Answer: The value was −1.3%.

Question: And the “Response at max conc (%)” value [3, 13]?
Answer: The value was 50%.

Question: What about the EC50 [4] of the same molecule?
Answer: Its EC50 is 518 ± 35 µM.

Question: What about the “calcium response (mean±SEM)” value [5, 6] of the same molecule?
Answer: Its value is 3.7 ± 1.3.

Question: And the “calcium response (mean±SEM)” value [5, 7]?
Answer: The value was 27 ± 2.2.

Question: And the “calcium response (mean±SEM)” value [5, 8]?
Answer: The value was 27 ± 0.8.

Question: What about the “calcium response (mean±SEM)” value [5, 9] of the same molecule?
Answer: Its value is 27 ± 1.5.

Question: What about the EC50 ([5]; 10 μM glycine, read-out: EC50) of the same molecule?
Answer: Its EC50 is 170 µM.

Question: What about the “% effect on calcium entry, 100 QA” value [5, 10] of the same molecule?
Answer: Its value is 0.9 ± 0.7%.

Question: What about the “calcium entry in CRC” value ([5]; 333 μM quinolinic acid, 10 μM glycine) of the same molecule?
Answer: Its value is 23±3.0%.

Question: What about the “calcium response (mean±SEM)” value ([5]; 1000 μM QA, 10 μM glycine) of the same molecule?
Answer: Its value is 37 ± 1.3.

Question: What about the “% effect on calcium entry, 1000 QA” value [5, 11] of the same molecule?
Answer: Its value is 37±1.3%.

Question: And the “% effect on calcium entry, 1000 QA” value [5, 14]?
Answer: Its value is 37 ± 1.3%.

Question: And the “Minimal response (%)” value [5, 12]?
Answer: The value was −2.1%.

Question: And the “Response at max conc (%)” value ([5]; 10 μM glycine)?
Answer: The value was 25%.

Question: What about the “Response at max conc (%)” value ([5]; 10 μM glycine, listed as quinolinic acid) of the same molecule?
Answer: The value was 25±2.1%.
